Measured values from ChEMBL document CHEMBL4265928, “Design, synthesis, and biological evaluation of 2-(phenoxyaryl)-3-urea derivatives as novel P2Y1 receptor antagonists” (Eur J Med Chem, 2018).

Tests used:
[1] = system: Rattus norvegicus; experiment: Antiplatelet activity in Sprague-Dawley rat platelet rich plasma assessed as inhibition of ADP-induced platelet aggregation at 3 mg/kg, ig after 2 hrs relative to control; format: functional; conditions: po
[2] = target: P2Y purinoceptor 1 (Homo sapiens, UniProt P47900); experiment: Antagonist activity at P2Y1 (unknown origin) expressed in human 1321N1 cells assessed as induction of calcium stimulation by fluo-4 dye based assay; format: functional, cell-based
Sequence of P2Y purinoceptor 1 (P47900 whole entry): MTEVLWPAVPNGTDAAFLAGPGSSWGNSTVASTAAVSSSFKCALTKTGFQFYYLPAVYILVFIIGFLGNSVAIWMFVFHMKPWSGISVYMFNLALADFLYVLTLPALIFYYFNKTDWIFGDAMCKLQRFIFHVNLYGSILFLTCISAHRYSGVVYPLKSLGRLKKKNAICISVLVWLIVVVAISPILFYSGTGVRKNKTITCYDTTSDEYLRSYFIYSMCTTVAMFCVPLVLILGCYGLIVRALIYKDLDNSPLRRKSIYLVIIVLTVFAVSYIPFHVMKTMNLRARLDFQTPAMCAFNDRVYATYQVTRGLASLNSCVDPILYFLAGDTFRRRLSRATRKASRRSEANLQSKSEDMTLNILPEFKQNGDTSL

IC50 [2] [µM] | SMILES | inhibition in vivo at 3 mg/kg [1] [%]
7.53 | CC(C)(C)c1ccccc1Oc1ccccc1NC(=O)Nc1ccc(OC(F)(F)F)cc1 | 
0.21 | Cc1ccc(NC(=O)Nc2ccc(OC(F)(F)F)cc2)c(Oc2ccccc2C(C)(C)C)n1 | 68.9
12.9 | COC(=O)c1ccc(NC(=O)Nc2cccnc2Oc2ccccc2C(C)(C)C)s1 | 
7.19 | CC(C)(C)c1ccccc1Oc1ncccc1NC(=O)Nc1ccc(C(=O)OCc2ccccc2)s1 | 69.4

Further lines, the compound ahead of its results:

SMILES | IC50 [2] [µM] | inhibition in vivo at 3 mg/kg [1] [%]
CC(C)(C)c1ccccc1Oc1ncccc1NC(=O)Nc1ccc(OC(F)(F)F)cc1 |  | 67.4
CC(C)(C)c1ccccc1Oc1ncccc1NC(=O)NC1C2CC3CC(C2)CC1C3 (configuration not stated) | 0.62 | 26.7
CCOC(=O)c1ccc(NC(=O)Nc2cccnc2Oc2ccccc2C(C)(C)C)s1 | 12.5 | 50.6
CC(C)(C)c1ccccc1Oc1ncccc1NC(=O)N[C@H]1CC[C@H](C)CC1 | 7.05 | 57.6
CC1CCCCC1NC(=O)Nc1cccnc1Oc1ccccc1C(C)(C)C (configuration not stated) | 0.82 | 
CCCCNC(=O)Nc1cccnc1Oc1ccccc1C(C)(C)C | 9.98 | 22
CC(C)(C)c1ccccc1Oc1ncccc1NC(=O)NC1CCCC1 | 2.41 | 
